Assay results from US20240209028A1, “CNP COMPOUNDS” (priority 2022, published 2024).
Starred links: 1 amine or outer side, 2 acyl side, 3 side chain; linkers in the order of their positions; H or OH if unused. Positions of bridges follow the written chain, without caps; N, C: chain ends. Residues, ends and D or L forms follow the SMILES beside them. *: point of attachment. C20 diacid = O=C(O)CCCCCCCCCCCCCCCCCCC(=O)*; C18 diacid = O=C(O)CCCCCCCCCCCCCCCCC(=O)*; γGlu = O=C(O)[C@H](CCC(=O)[*:2])N[*:1]; AEEA = NCCOCCOCC(=O)O

Target: T1, human natriuretic peptide receptor 2 (hNPR2) (Homo sapiens, UniProt P20594)
T1 construct: expressed in transfected cells; host or cells: HEK293 (ATCC CRL-1573), clone 35, co-transfected with pGloSensor-42F
T1 sequence (P20594 23-1047): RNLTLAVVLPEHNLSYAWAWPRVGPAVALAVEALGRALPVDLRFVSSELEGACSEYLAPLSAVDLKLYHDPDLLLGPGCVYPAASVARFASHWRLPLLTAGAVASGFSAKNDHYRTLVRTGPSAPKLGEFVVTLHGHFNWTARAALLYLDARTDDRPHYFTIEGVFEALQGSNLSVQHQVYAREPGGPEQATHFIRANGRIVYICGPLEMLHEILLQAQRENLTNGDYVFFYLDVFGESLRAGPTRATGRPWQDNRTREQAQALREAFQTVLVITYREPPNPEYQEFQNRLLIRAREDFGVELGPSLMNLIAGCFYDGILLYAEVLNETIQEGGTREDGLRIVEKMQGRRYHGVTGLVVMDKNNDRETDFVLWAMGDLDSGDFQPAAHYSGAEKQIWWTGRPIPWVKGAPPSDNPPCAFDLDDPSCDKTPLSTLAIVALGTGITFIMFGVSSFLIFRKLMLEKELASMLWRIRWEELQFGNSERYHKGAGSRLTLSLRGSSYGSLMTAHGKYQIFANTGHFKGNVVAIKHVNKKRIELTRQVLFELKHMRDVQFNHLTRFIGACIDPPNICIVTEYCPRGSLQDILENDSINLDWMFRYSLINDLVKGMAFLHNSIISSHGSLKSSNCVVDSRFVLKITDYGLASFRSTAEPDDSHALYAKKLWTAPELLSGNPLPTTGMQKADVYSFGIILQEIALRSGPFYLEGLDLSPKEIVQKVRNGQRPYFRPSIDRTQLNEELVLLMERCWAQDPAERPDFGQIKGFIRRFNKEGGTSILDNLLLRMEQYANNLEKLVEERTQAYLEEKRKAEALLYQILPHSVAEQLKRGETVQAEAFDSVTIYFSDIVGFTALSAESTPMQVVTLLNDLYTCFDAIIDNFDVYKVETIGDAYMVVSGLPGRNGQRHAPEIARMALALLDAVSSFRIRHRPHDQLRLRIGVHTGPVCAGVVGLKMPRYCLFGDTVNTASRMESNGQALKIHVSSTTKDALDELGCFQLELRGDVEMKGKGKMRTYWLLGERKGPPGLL
Assay: In vitro hNPR2 activity assay (cGMP GloSensor reporter, HEK293)
Type: cell-based
Details: for hNPR2 0% HSA. [EC50% rel CNP]: potency relative to CNP22 (0065); for EC50: 0% HSA, HEK293-hNPR2/GloSensor cells
Outline: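 Potency is the EC50 from a four-parameter logistic fit, also expressed relative to the in-plate CNP22 control (×100), with at least two replicates. Compounds (ten concentrations, […], HSA-free diluent with 1% OVA, 0.01% Tween20) were incubated 30 min at 37 °C on HEK293 cells co-expressing hNPR2 and a GloSensor cGMP luciferase. Luminescence detected with Bright-Glo.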

Row | SMILES | hNPR2 0% HSA. [EC50% rel CNP] [%] | EC50 [nM]
1 | CC[C@H](C)[C@@H]1NC(=O)[C@H](CCCNC(=N)N)NC(=O)[C@H](CC(=O)O)NC(=O)[C@H](CC(C)C)NC(=O)[C@@H]2CCCN2C(=O)[C@H](CC(C)C)NC(=O)CNC(=O)[C@H](Cc2ccccc2)NC(=O)[C@@H](NC(=O)CNC(=O)[C@H](CO)NC(=O)[C@H](CO)NC(=O)[C@@H](NC(=O)CNC(=O)[C@@H](NC(=O)[C@H](Cc2c[nH]cn2)NC(=O)[C@H](CCC(N)=O)NC(=O)[C@H](C)NC(=O)CNC(=O)[C@H](Cc2c[nH]cn2)NC(=O)[C@H](CCC(=O)O)NC(=O)[C@H](CCCCN)NC(=O)[C@H](CCCNC(=N)N)NC(=O)[C@H](C)NC(=O)COCCOCCNC(=O)COCCOCCNC(=O)CC[C@H](NC(=O)CCCCCCCCCCCCCCCCC(=O)O)C(=O)O)[C@@H](C)O)C(C)C)CSSC[C@@H](C(=O)O)NC(=O)CNC(=O)[C@H](CC(C)C)NC(=O)CNC(=O)[C@H](CO)NC(=O)[C@H](CC(C)C)NC(=O)[C@H](CO)NC(=O)CNC1=O [compound 1360] ({C18 diacid-γGlu-AEEA-AEEA}-ARKEHGAQHTGVSSGCFGLPLDRIGSLSGLGC-OH; disulfide 16-32) | 15.1 | –
2 | CC[C@H](C)[C@@H]1NC(=O)[C@H](CCCNC(=N)N)NC(=O)[C@H](CC(=O)O)NC(=O)[C@H](CC(C)C)NC(=O)[C@@H]2CCCN2C(=O)[C@H](CC(C)C)NC(=O)CNC(=O)[C@H](Cc2ccccc2)NC(=O)[C@@H](NC(=O)CNC(=O)[C@H](CCC(N)=O)NC(=O)[C@H](CO)NC(=O)[C@H](CO)NC(=O)CNC(=O)[C@H](CCCCN)NC(=O)[C@H](CCCCN)NC(=O)[C@H](CCC(N)=O)NC(=O)[C@H](C)NC(=O)CNC(=O)[C@H](CCCCN)NC(=O)[C@H](Cc2ccc(O)cc2)NC(=O)[C@H](Cc2c[nH]cn2)NC(=O)[C@H](CCCNC(=N)N)NC(=O)[C@H](C)NC(=O)[C@H](CCC(N)=O)NC(=O)[C@@H]2CCCN2C(=O)[C@H](Cc2c[nH]cn2)NC(=O)[C@H](CCC(=O)O)NC(=O)[C@H](CCC(N)=O)NC(=O)COCCOCCNC(=O)COCCOCCNC(=O)CC[C@H](NC(=O)CC[C@H](NC(=O)CC[C@H](NC(=O)CC[C@H](NC(=O)CCCCCCCCCCCCCCCCCCC(=O)O)C(=O)O)C(=O)O)C(=O)O)C(=O)O)CSSC[C@@H](C(=O)O)NC(=O)CNC(=O)[C@H](CC(C)C)NC(=O)CNC(=O)[C@H](CO)NC(=O)[C@H](CC(C)C)NC(=O)[C@H](CO)NC(=O)CNC1=O [compound 1399] ({C20 diacid-γGlu-γGlu-γGlu-γGlu-AEEA-AEEA}-QEHPQARHYKGAQKKGSSQGCFGLPLDRIGSLSGLGC-OH; disulfide 21-37) | 137.0 | –
3 | CC[C@H](C)[C@@H]1NC(=O)[C@H](CCCNC(=N)N)NC(=O)[C@H](CC(=O)O)NC(=O)[C@H](CC(C)C)NC(=O)[C@H](CCCCN)NC(=O)[C@H](CC(C)C)NC(=O)CNC(=O)[C@H](Cc2ccccc2)NC(=O)[C@@H](NC(=O)CNC(=O)[C@H](CO)NC(=O)[C@H](CO)NC(=O)[C@H](CC(C)C)NC(=O)CNC(=O)[C@H](CCCCN)NC(=O)[C@H](CCC(=O)O)NC(=O)[C@H](CCC(N)=O)NC(=O)[C@H](C)NC(=O)CNC(=O)[C@H](CCCCN)NC(=O)[C@H](CCC(=O)O)NC(=O)COCCOCCNC(=O)COCCOCCNC(=O)CC[C@H](NC(=O)CCCCCCCCCCCCCCCCC(=O)O)C(=O)O)CSSC[C@@H](C(=O)O)NC(=O)CNC(=O)[C@H](CC(C)C)NC(=O)CNC(=O)[C@H](CO)NC(=O)[C@H](CC(C)C)NC(=O)[C@H](CO)NC(=O)CNC1=O [compound 1230] ({C18 diacid-γGlu-AEEA-AEEA}-EKGAQEKGLSSGCFGLKLDRIGSLSGLGC-OH; disulfide 13-29) | 4.2 | 6.98
4 | CC[C@H](C)[C@@H]1NC(=O)[C@H](CCCNC(=N)N)NC(=O)[C@H](CC(=O)O)NC(=O)[C@H](CC(C)C)NC(=O)[C@@H]2CCCN2C(=O)[C@H](CC(C)C)NC(=O)CNC(=O)[C@H](Cc2ccccc2)NC(=O)[C@@H](NC(=O)CNC(=O)[C@H](CCC(N)=O)NC(=O)[C@H](CO)NC(=O)[C@H](CC(C)C)NC(=O)CNC(=O)[C@H](CCCCN)NC(=O)[C@H](CCCCN)NC(=O)[C@H](CCC(N)=O)NC(=O)[C@H](C)NC(=O)CNC(=O)[C@H](CCCCN)NC(=O)[C@H](Cc2ccc(O)cc2)NC(=O)[C@H](CCCCN)NC(=O)[C@H](CCCNC(=N)N)NC(=O)[C@H](C)NC(=O)COCCOCCNC(=O)COCCOCCNC(=O)COCCOCCNC(=O)CC[C@H](NC(=O)CC[C@H](NC(=O)CC[C@H](NC(=O)CC[C@H](NC(=O)CCCCCCCCCCCCCCCCC(=O)O)C(=O)O)C(=O)O)C(=O)O)C(=O)O)CSSC[C@@H](C(=O)O)NC(=O)CNC(=O)[C@H](CC(C)C)NC(=O)CNC(=O)[C@H](CO)NC(=O)[C@H](CC(C)C)NC(=O)[C@H](CO)NC(=O)CNC1=O [compound 1455] ({C18 diacid-γGlu-γGlu-γGlu-γGlu-AEEA-AEEA-AEEA}-ARKYKGAQKKGLSQGCFGLPLDRIGSLSGLGC-OH; disulfide 16-32) | 43.4 | –
5 | CC[C@H](C)[C@@H]1NC(=O)[C@H](CCCNC(=N)N)NC(=O)[C@H](CC(=O)O)NC(=O)[C@H](CC(C)C)NC(=O)[C@@H]2CCCN2C(=O)[C@H](CC(C)C)NC(=O)CNC(=O)[C@H](Cc2ccccc2)NC(=O)[C@@H](NC(=O)CNC(=O)[C@H](CCC(N)=O)NC(=O)[C@H](CO)NC(=O)[C@H](CC(C)C)NC(=O)CNC(=O)[C@H](CCCCN)NC(=O)[C@H](CCCCN)NC(=O)[C@H](CCC(N)=O)NC(=O)[C@H](C)NC(=O)CNC(=O)[C@H](CCCCN)NC(=O)[C@H](Cc2ccc(O)cc2)NC(=O)[C@H](CCCCN)NC(=O)[C@H](CCCNC(=N)N)NC(=O)[C@H](C)NC(=O)COCCOCCNC(=O)COCCOCCNC(=O)COCCOCCNC(=O)CC[C@H](NC(=O)CC[C@H](NC(=O)CC[C@H](NC(=O)CC[C@H](NC(=O)CC[C@H](NC(=O)CCCCCCCCCCCCCCCCC(=O)O)C(=O)O)C(=O)O)C(=O)O)C(=O)O)C(=O)O)CSSC[C@@H](C(=O)O)NC(=O)CNC(=O)[C@H](CC(C)C)NC(=O)CNC(=O)[C@H](CO)NC(=O)[C@H](CC(C)C)NC(=O)[C@H](CO)NC(=O)CNC1=O [compound 1452] ({C18 diacid-γGlu-γGlu-γGlu-γGlu-γGlu-AEEA-AEEA-AEEA}-ARKYKGAQKKGLSQGCFGLPLDRIGSLSGLGC-OH; disulfide 16-32) | 57.6 | –
6 | CC[C@H](C)[C@@H]1NC(=O)[C@H](CCCNC(=N)N)NC(=O)[C@H](CC(=O)O)NC(=O)[C@H](CC(C)C)NC(=O)[C@H](CCCCN)NC(=O)[C@H](CC(C)C)NC(=O)CNC(=O)[C@H](Cc2ccccc2)NC(=O)[C@@H](NC(=O)CNC(=O)[C@H](CCCCN)NC(=O)[C@H](CO)NC(=O)[C@H](CC(C)C)NC(=O)CNC(=O)[C@H](CCCCN)NC(=O)[C@H](CCC(=O)O)NC(=O)[C@H](CCC(N)=O)NC(=O)[C@H](C)NC(=O)CNC(=O)[C@H](CCCCN)NC(=O)[C@H](Cc2ccc(O)cc2)NC(=O)COCCOCCNC(=O)COCCOCCNC(=O)CC[C@H](NC(=O)CCCCCCCCCCCCCCCCC(=O)O)C(=O)O)CSSC[C@@H](C(=O)O)NC(=O)CNC(=O)[C@H](CC(C)C)NC(=O)CNC(=O)[C@H](CO)NC(=O)[C@H](CC(C)C)NC(=O)[C@H](CO)NC(=O)CNC1=O [compound 1232] ({C18 diacid-γGlu-AEEA-AEEA}-YKGAQEKGLSKGCFGLKLDRIGSLSGLGC-OH; disulfide 13-29; C-terminus assumed) | 16.0 | 1.63
7 | CC[C@H](C)[C@@H]1NC(=O)[C@H](CCCNC(=N)N)NC(=O)[C@H](CC(=O)O)NC(=O)[C@H](CC(C)C)NC(=O)[C@@H]2CCCN2C(=O)[C@H](CC(C)C)NC(=O)CNC(=O)[C@H](Cc2ccccc2)NC(=O)[C@@H](NC(=O)CNC(=O)[C@H](CCC(N)=O)NC(=O)[C@H](CO)NC(=O)[C@H](CC(C)C)NC(=O)CNC(=O)[C@H](CCCCN)NC(=O)[C@H](CCCCN)NC(=O)[C@H](CCC(=O)O)NC(=O)[C@H](C)NC(=O)CNC(=O)[C@H](CCC(=O)O)NC(=O)[C@H](Cc2ccc(O)cc2)NC(=O)COCCOCCNC(=O)COCCOCCNC(=O)CC[C@H](NC(=O)CCCCCCCCCCCCCCCCC(=O)O)C(=O)O)CSSC[C@@H](C(=O)O)NC(=O)CNC(=O)[C@H](CC(C)C)NC(=O)CNC(=O)[C@H](CO)NC(=O)[C@H](CC(C)C)NC(=O)[C@H](CO)NC(=O)CNC1=O [compound 1274] ({C18 diacid-γGlu-AEEA-AEEA}-YEGAEKKGLSQGCFGLPLDRIGSLSGLGC-OH; disulfide 13-29) | 13.2 | –
